# Assay results published in US20260137692A1, “METHODS AND COMPOSITIONS FOR TREATING AND MANAGING ALZHEIMER'S DISEASE” (PHARMATROPHIX, INC., priority 2024, published 2026).
# Test system: patients with mild to moderate Alzheimer's Disease
# Test: Phase IIa trial: ADAS-Cog
# Format: in vivo, human
# Settings: ITT
# Method: Exploratory outcome evaluations involved the assessment of cognitive and clinical function (Table 4). […] Items from the Neurological Testing Battery (NTB), together with the ADAS-Cog 13, Spatial Navigation Test (AMUNET) were performed at Baseline, Week 12 and Week 26 (Visits 2, 4 and 5). While the MMSE was used primarily as a screening and baseline disease staging tool, its repeated administration at Week 26 provided an additional exploratory cognitive outcome measure. The Geriatric Depression Scale (GDS) was assessed at each Visit (Screening, Baseline, Week 4, 12, 26: Visits 1-5) and the Clinical Global Impression test (CGI) with Severity was assessed at Screening (Visit 1) and then the Improvement was subsequently assessed at Weeks 12 and 26 (Visits 4 and 5). For each test, whether categorical or numeric, all raw scores were considered interval in nature. The change from Screening (Week −8) or Baseline (Week 0) was therefore be derived for each patient. Actual values at each Visit and Changes from Screening/Baseline were summarized.
# Alzheimer's Disease Assessment Scale-13 items (total score=85) is used as a parameter for exploratory outcome analysis. ADAS-cog is a psychometric instrument designed to evaluate the severity of cognitive and non-cognitive behavioral dysfunctions characteristic of people with AD. The cognitive portion assesses memory, language and praxis functions. Most items are rated on a scale of 0 to 5, where 0 indicates no impairment and 1 to 5 indicates very mild (1), mild (2), moderate (3), moderately severe (4) or severe impairment (5) respectively. Other items are rated on the presence or absence of a characteristic number of errors or severity of errors. The total scores from the ADAS-cog sub-scales range from 0 (no impairment) to 85 (errors in all sub-tests).
# A positive (i.e., increasing) change of the score indicates cognitive worsening.
# ADAS-Cog was assessed at Visits 2, 4 and 5, as well as at the early discontinuation Visit, if applicable.
structure (smiles),measurement,setting,value
"CC[C@H](C)[C@H](N)C(=O)NCCN1CCOCC1 [LM11A-31-BHS, Tris[(2S,3S)-2-amino-3-methyl-N-(2-morpholinoethyl)pentanamide]tetra(monohydrogensulfate), monosulfate]","progression compared to placebo in the LS mean ADAS-cog-13 score, increased by","200 mg group, 26-week treatment period, not statistically significant",7.1%
same,"ADAS-cog-6 score progression compared to placebo, increased by","200 mg group, 26 weeks",7.1%
same,"progression compared to placebo of the LS mean ADAS-cog-11 score, decreased by","200 mg group, 26 weeks",9.8%
same,"progression compared to placebo in the LS mean ADAS-cog-13 score, decreased by","400 mg group, 26-week treatment period, not statistically significant",35.3%
same,"ADAS-cog-6 score progression compared to placebo, decreased by","400 mg group, 26 weeks",31.4%
same,"progression compared to placebo of the LS mean ADAS-cog-11 score, decreased by","400 mg group, 26 weeks",42.7%
